Assay results as given in PMC9516332 (Frontiers in Oncology, 2022).
Where two headings read alike, the source gives them in different places.

System: 134 cancer cell lines
Assay: Cell viability assay (ATPlite, 72 hours), IC50 on cancer cell line panel

IC50 (HEC-6, read-out: IC50 in cell proliferation assay, HEC-6 cell line (EGFR p.A289V)): 16.9 µM
IC50 (Homo sapiens, 769-P, read-out: IC50 in cell proliferation assay, cell line 769-P): 3.15 µM
IC50 (Homo sapiens, 786-0, read-out: IC50 in cell proliferation assay, cell line 786-O): 3.96 µM
IC50 (Homo sapiens, A 172, read-out: IC50 in cell proliferation assay, cell line A-172): 0.758 µM
IC50 (Homo sapiens, A204, read-out: IC50 in cell proliferation assay, cell line A-204): 0.679 µM
IC50 (Homo sapiens, A498, read-out: IC50 in cell proliferation assay, cell line A-498): 8.94 µM
IC50 (Homo sapiens, A549, read-out: IC50 in cell proliferation assay, cell line A-549): 8.17 µM
IC50 (Homo sapiens, A704, read-out: IC50 in cell proliferation assay, cell line A-704): 2.49 µM
IC50 (Homo sapiens, A-375, read-out: IC50 in cell proliferation assay, cell line A-375 (BRAF p.V600E)): 12.1 µM
IC50 (Homo sapiens, A-427, read-out: IC50 in cell proliferation assay, cell line A-427): 1.1 µM
IC50 (Homo sapiens, ACHN, read-out: IC50 in cell proliferation assay, cell line ACHN): 2.08 µM
IC50 (Homo sapiens, AN3-CA, read-out: IC50 in cell proliferation assay, cell line AN3-CA (FGFR2 p.N549K)): 0.9 µM
IC50 (Homo sapiens, ASPC1, read-out: IC50 in cell proliferation assay, cell line AsPC-1): 25.9 µM
IC50 (Homo sapiens, AU565, read-out: IC50 in cell proliferation assay, cell line AU565 (ERBB2 amplification)): 8.92 µM
IC50 (Homo sapiens, BT-20, read-out: IC50 in cell proliferation assay, cell line BT-20): 12.6 µM
IC50 (Homo sapiens, BT-474, read-out: IC50 in cell proliferation assay, cell line BT-474 (ERBB2 amplification)): > 31.6 µM
IC50 (Homo sapiens, BT-549, read-out: IC50 in cell proliferation assay, cell line BT-549): 1.93 µM
IC50 (Homo sapiens, BXPC-3, read-out: IC50 in cell proliferation assay, cell line BxPC-3): 3.46 µM
IC50 (Homo sapiens, C-33-A, read-out: IC50 in cell proliferation assay, cell line C-33 A): 0.981 µM
IC50 (Homo sapiens, CAL-27, read-out: IC50 in cell proliferation assay, cell line CAL-27): 1.95 µM
IC50 (Homo sapiens, CCF-STTG1, read-out: IC50 in cell proliferation assay, cell line CCF-STTG1): 5.77 µM
IC50 (Homo sapiens, CCRF-CEM, read-out: IC50 in cell proliferation assay, cell line CCRF-CEM): 13.3 µM
IC50 (Homo sapiens, COLO 205, read-out: IC50 in cell proliferation assay, cell line COLO 205 (BRAF p.V600E)): 12.9 µM
IC50 (Homo sapiens, COLO-829, read-out: IC50 in cell proliferation assay, cell line COLO 829 (BRAF p.V600E)): 24.7 µM
IC50 (Homo sapiens, DLD-1, read-out: IC50 in cell proliferation assay, cell line DLD-1): 9.98 µM
IC50 (Homo sapiens, DU-4475, read-out: IC50 in cell proliferation assay, cell line DU4475 (BRAF p.V600E)): 11.8 µM
IC50 (Homo sapiens, Daoy, read-out: IC50 in cell proliferation assay, cell line Daoy): 10.1 µM
IC50 (Homo sapiens, DoTc2-4510, read-out: IC50 in cell proliferation assay, cell line DoTc2 4510): 3.5 µM
IC50 (Homo sapiens, EOL1, read-out: IC50 in cell proliferation assay, cell line EoL-1 (FIP1L1-PDGFRA)): 0.016 µM
IC50 (Homo sapiens, FaDu, read-out: IC50 in cell proliferation assay, cell line FaDu): 3.65 µM
IC50 (Homo sapiens, G-361, read-out: IC50 in cell proliferation assay, cell line G-361 (BRAF p.V600E)): 17.6 µM
IC50 (Homo sapiens, HCC827, read-out: IC50 in cell proliferation assay, cell line HCC827 (EGFR exon19del)): 3.01 µM
IC50 (Homo sapiens, HCC4006, read-out: IC50 in cell proliferation assay, cell line HCC4006 (EGFR exon19del)): 5.93 µM
IC50 (Homo sapiens, HCT-15, read-out: IC50 in cell proliferation assay, cell line HCT 15): 5.73 µM
IC50 (Homo sapiens, HCT-116, read-out: IC50 in cell proliferation assay, cell line HCT 116): 10.3 µM
IC50 (Homo sapiens, HEC-1, read-out: IC50 in cell proliferation assay, HEC-1 cell line): 2.32 µM
IC50 (Homo sapiens, HEC-1B, read-out: IC50 in cell proliferation assay, HEC-1-B cell line (EGFR p.A864V)): 0.608 µM
IC50 (Homo sapiens, HL-60, read-out: IC50 in cell proliferation assay, HL-60 cell line): 25.2 µM
IC50 (Homo sapiens, HT, read-out: IC50 in cell proliferation assay, HT cell line): > 31.6 µM
IC50 (Homo sapiens, HT-1080, read-out: IC50 in cell proliferation assay, HT-1080 cell line): 8.1 µM
IC50 (Homo sapiens, Hs746T, read-out: IC50 in cell proliferation assay, Hs 746.T cell line (MET exon14skip + amplification)): 9.64 µM
IC50 (Homo sapiens, Hs-578T, read-out: IC50 in cell proliferation assay, Hs 578T cell line): 1.15 µM
IC50 (Homo sapiens, HuTu80, read-out: IC50 in cell proliferation assay, HuTu 80 cell line): 0.864 µM
IC50 (Homo sapiens, J82, read-out: IC50 in cell proliferation assay, J82 cell line): 1.74 µM
IC50 (Homo sapiens, Jurkat E6.1, read-out: IC50 in cell proliferation assay, Jurkat E6.1 cell line): 11.4 µM
IC50 (Homo sapiens, K562, read-out: IC50 in cell proliferation assay, K-562 cell line): 5.58 µM
IC50 (Homo sapiens, KATO III, read-out: IC50 in cell proliferation assay, KATO III cell line (FGFR2 amplification)): 0.273 µM
IC50 (Homo sapiens, KG-1, read-out: IC50 in cell proliferation assay, KG-1 cell line (FGFR1OP2-FGFR1)): 0.131 µM
IC50 (Homo sapiens, KLE, read-out: IC50 in cell proliferation assay, KLE cell line): 1.82 µM
IC50 (Homo sapiens, KMS-11, read-out: IC50 in cell proliferation assay, KMS-11 cell line (FGFR3 p.Y373C)): 0.394 µM
IC50 (Homo sapiens, KU812, read-out: IC50 in cell proliferation assay, Ku812 cell line): 3.74 µM
IC50 (Homo sapiens, Kasumi 1, read-out: IC50 in cell proliferation assay, Kasumi-1 cell line (KIT p.N822K)): 0.184 µM
IC50 (Homo sapiens, LC-2-ad, read-out: IC50 in cell proliferation assay, LC-2/ad cell line (CCDC6-RET)): 0.054 µM
IC50 (Homo sapiens, LNCaP-Clone-FGC, read-out: IC50 in cell proliferation assay, LNCaP clone FGC cell line): > 31.6 µM
IC50 (Homo sapiens, LS174T, read-out: IC50 in cell proliferation assay, LS174T cell line): 2.29 µM
IC50 (Homo sapiens, LS-411N, read-out: IC50 in cell proliferation assay, LS411N cell line (BRAF p.V600E)): 25.6 µM
IC50 (Homo sapiens, LoVo, read-out: IC50 in cell proliferation assay, LoVo cell line): 1.52 µM
IC50 (Homo sapiens, MCF7, read-out: IC50 in cell proliferation assay, MCF-7 cell line): > 31.6 µM
IC50 (Homo sapiens, MDA-MB-231, read-out: IC50 in cell proliferation assay, MDA-MB-231 cell line): 0.555 µM
IC50 (Homo sapiens, MDA-MB-453, read-out: IC50 in cell proliferation assay, MDA-MB-453 cell line): > 31.6 µM
IC50 (Homo sapiens, MDA-MB-468, read-out: IC50 in cell proliferation assay, MDA-MB-468 cell line): 8.52 µM
IC50 (Homo sapiens, MG-63, read-out: IC50 in cell proliferation assay, MG-63 cell line): 1.88 µM
IC50 (Homo sapiens, MIA PaCa-2, read-out: IC50 in cell proliferation assay, MIA PaCa-2 cell line): 1.56 µM
IC50 (Homo sapiens, MKN-45, read-out: IC50 in cell proliferation assay, MKN45 cell line (MET amplification)): > 31.6 µM
IC50 (Homo sapiens, MOLM-13, read-out: IC50 in cell proliferation assay, MOLM-13 cell line (FLT3 ITD)): 0.033 µM
IC50 (Homo sapiens, MOLT-4, read-out: IC50 in cell proliferation assay, MOLT-4 cell line): 9.35 µM
IC50 (Homo sapiens, MV4-11, read-out: IC50 in cell proliferation assay, MV4-11 cell line (FLT3 ITD)): 0.087 µM
IC50 (Homo sapiens, MeWo, read-out: IC50 in cell proliferation assay, MeWo cell line): 6.97 µM
IC50 (Homo sapiens, NCCIT, read-out: IC50 in cell proliferation assay, NCC-IT cell line): 1.66 µM
Compound: CO[C@]1(C(=O)N[C@@H](C)c2ccc(-n3cc(F)cn3)nc2)CC[C@H](c2nc(C)cc(Nc3cc(C)[nH]n3)n2)CC1 [pralsetinib]
